The results in this text go back to patent US11072585B2 (PharmAkea, Inc., priority 2015, dated 2021).

pIC50: −log10 of the molar value. Structures can show the parent of a compound that is named as a salt. A value given as a limit tells only on which side of the number the result lay.

For this test, the target named is human LOXL2 (Homo sapiens (Human), UniProt Q9Y4K0). As to the kind of experiment: Human LOXL2 amine oxidase activity assay (Amplex Red). The class given is biochemical. The conditions noted are these: concentrated conditioned media from CHO cells stably expressing human LOXL2; 2 h at 37° C. with compound; DAP substrate. The procedure: Example B-1: Human LOXL2 Amine Oxidase Activity Assay
human LOXL2, sequence (Q9Y4K0 26-774): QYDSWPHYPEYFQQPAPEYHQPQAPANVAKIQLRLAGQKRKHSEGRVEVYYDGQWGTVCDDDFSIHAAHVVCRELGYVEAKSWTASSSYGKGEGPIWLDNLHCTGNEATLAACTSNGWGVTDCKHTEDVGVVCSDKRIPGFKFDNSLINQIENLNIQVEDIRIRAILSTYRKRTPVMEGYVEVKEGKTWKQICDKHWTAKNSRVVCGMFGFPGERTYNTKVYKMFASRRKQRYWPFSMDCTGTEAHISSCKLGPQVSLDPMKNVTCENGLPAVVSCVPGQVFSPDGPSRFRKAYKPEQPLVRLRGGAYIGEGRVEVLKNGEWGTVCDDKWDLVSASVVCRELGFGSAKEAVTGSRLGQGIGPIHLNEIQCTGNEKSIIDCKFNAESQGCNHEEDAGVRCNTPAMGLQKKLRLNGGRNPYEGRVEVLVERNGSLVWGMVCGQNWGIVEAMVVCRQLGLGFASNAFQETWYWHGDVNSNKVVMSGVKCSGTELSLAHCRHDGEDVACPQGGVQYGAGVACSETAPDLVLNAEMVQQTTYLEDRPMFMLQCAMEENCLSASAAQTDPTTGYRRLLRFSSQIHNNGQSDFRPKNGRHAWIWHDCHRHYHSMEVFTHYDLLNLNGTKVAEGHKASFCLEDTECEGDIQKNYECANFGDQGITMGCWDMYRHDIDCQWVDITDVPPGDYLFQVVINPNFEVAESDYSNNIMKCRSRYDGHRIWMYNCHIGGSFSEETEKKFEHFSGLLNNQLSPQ
LOXL2 amine oxidase activity is evaluated by measuring Amplex Red fluorescence using 10-20× concentrated conditioned media from CHO cells stably expressing human LOXL2. To assay for amine oxidase activity, 10 μL of the concentrated conditioned media is incubated with 2 μL of test compound in DMSO and 73 μL Assay Buffer (50 mM Borate Buffer, pH8) for 2 h at 37° C. After the 2 h incubation, 5 ul of 10 mM 1,5-Diaminopentane (DAP) diluted in Assay Buffer and 10 μl of Amplex Red Mix (8.5 μl Assay Buffer+0.5 μl of 10 mM Amplex Red+1 μl of 500 U/ml Horseradish Peroxidase) are added and the plate mixed and immediately placed on the FlexStaion for fluorescence measurements. Fluorescence is read in kinetic mode every 2 min for 1 hour at excitation=544 and emission=590. The amine oxidase activity is calculated from the slope of the linear portion of the curve.
On to `NCc1cc(Oc2cccc(C(=O)NCC3(O)CCC3)c2)nc(C(F)(F)F)c1` [Compound 1-201, 3-((4-(Aminomethyl)-6-(trifluoromethyl)pyridin-2-yl)oxy)-N-((1-hydroxycyclobutyl)methyl)benzamide hydrochloride], for which the pIC50 was > 6.52.
Next, `CS(=O)(=O)OC1CN(C(=O)c2cccc(Oc3cc(CN)cc(C(F)(F)F)n3)c2)CC1F` (centres unmarked) [Compound 1-214, hydrochloride]: > 6.52.
With `N#CCCNC(=O)c1cccc(Oc2cc(CN)cc(C(F)(F)F)n2)c1` [Compound 1-198, 3-((4-(Aminomethyl)-6-(trifluoromethyl)pyridin-2-yl)oxy)-N-(2-cyanoethyl)benzamide hydrochloride], the pIC50 was > 6.52.
Consider `NCc1cc(Oc2cccc(C(=O)NCc3nn[nH]n3)c2)nc(C(F)(F)F)c1` [Compound 1-13, N-((2H-Tetrazol-5-yl)methyl)-3-((4-(aminomethyl)-6-(trifluoromethyl)pyridin-2-yl)oxy)benzamide hydrochloride], for which the pIC50 is > 6.52.
In the case of `CN(C(=O)Cn1ccc2c(Oc3cc(CN)cc(C(F)(F)F)n3)cccc21)c1ccccc1` [Compound 1-38, 2-(4-((4-(Aminomethyl)-6-(trifluoromethyl)pyridin-2-yl)oxy)-1H-indol-1-yl)-N-methyl-N-phenylacetamide hydrochloride], the pIC50 is > 6.52.
For the compound `NCc1cc(Oc2cccc(Oc3ccccc3)c2)nc(C(F)(F)F)c1` [Compound 1-3, (2-(3-Phenoxyphenoxy)-6-(trifluoromethyl)pyridin-4-yl)methanamine trifluoroacetate], the pIC50 is > 6.52.
Turning to `NCc1cc(Oc2cccc(C(=O)Nc3ncco3)c2)nc(C(F)(F)F)c1` [Compound 1-227, 3-((4-(Aminomethyl)-6-(trifluoromethyl)pyridin-2-yl)oxy)-N-(oxazol-2-yl)benzamide hydrochloride], the pIC50 was > 6.52.
Take `NCc1cc(Oc2cc(C(=O)N3C[C@@H](O)[C@H](F)C3)ccc2OCc2ccccc2)nc(C(F)(F)F)c1` (racemic) [Compound 1-231, Racemic-trans-(3-((4-(aminomethyl)-6-(trifluoromethyl)pyridin-2-yl)oxy)-4-(benzyloxy)phenyl)(3-fluoro-4-hydroxypyrrolidin-1-yl)methanone]: the pIC50 was > 6.52.
Turning to `NCc1cc(Oc2cccc(C(=O)Nc3cncnc3)c2)nc(C(F)(F)F)c1` [Compound 1-226, 3-((4-(Aminomethyl)-6-(trifluoromethyl)pyridin-2-yl)oxy)-N-(pyrimidin-5-yl)benzamide hydrochloride], the pIC50 was > 6.52.
Regarding `NCc1cc(Oc2cccc(Nc3ccccc3)c2)nc(C(F)(F)F)c1` [Compound 1-5, 3-((4-(Aminomethyl)-6-(trifluoromethyl)pyridin-2-yl)oxy)-N-phenylaniline], the pIC50 is > 6.52.
With `CC(=O)N1CCC2(CC(Oc3cc(CN)cc(C(F)(F)F)n3)C2)C1` (centres unmarked) [Compound 1-244, 1-(2-((4-(Aminomethyl)-6-(trifluoromethyl)pyridin-2-yl)oxy)-6-azaspiro[3.4]octan-6-yl)ethanone hydrochloride], the negative-log IC50 (pIC50) was 6.00 to 6.52.
For the compound `NCc1cc(Oc2cc(O)cc(C(=O)N3C[C@@H](O)[C@H](F)C3)c2)nc(C(F)(F)F)c1` (racemic) [Compound 1-230, Racemic-trans-(3-((4-(aminomethyl)-6-(trifluoromethyl)pyridin-2-yl)oxy)-5-hydroxyphenyl)(3-fluoro-4-hydroxypyrrolidin-1-yl)methanone hydrochloride], the pIC50 was > 6.52.
`NCc1cc(Oc2cccc(COc3ccccc3)c2)nc(C(F)(F)F)c1` [Compound 1-4, (2-(3-(Phenoxymethyl)phenoxy)-6-(trifluoromethyl)pyridin-4-yl)methanamine trifluoroacetate]: the pIC50 was > 6.52.
On to `NCc1cc(Oc2cccc(C(=O)N3CC4(CCOCC4)C3)c2)nc(C(F)(F)F)c1` [Compound 1-207, (3-((4-(Aminomethyl)-6-(trifluoromethyl)pyridin-2-yl)oxy)phenyl)(7-oxa-2-azaspiro[3.5]nonan-2-yl)methanone hydrochloride], for which the pIC50 is > 6.52.

As usually defined, the pIC50 is the IC50 on a negative log10 scale, so that one unit is a factor of ten.
